The text below walks through data of patent US9464084B2, “P2X7 modulators” (Janssen Pharmaceutica NV, priority 2013, dated 2016).

The structures appear in SMILES notation.

Holding throughout (format): cell-based
Experiment [1] deals with T1, P2X7 (Homo sapiens (Human), UniProt Q99572). The experiment can be described thus: P2X7 antagonism in human PBMCs (LPS + Bz-ATP induced IL-1β release, ELISA).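 On all read-outs here: PBMCs from donor human blood, with a further 1.5 h incubation of the cells in the assay.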 The settings on record: LPS 30 ng/ml, Bz-ATP 0.5 mM; for PBMC 10 μM (% control): compound 10 μM; for PBMC 1 μM (% control): compound 1 μM. For orientation: An ELISA detects its analyte on a solid surface through an enzyme-linked reagent.

For experiment [2], the target named is T1, P2X7. The experiment can be described thus: Ca2+ flux (FLIPR) in 1321N1 cells expressing recombinant human P2X7 channel.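 Further: Calcium-4 dye-loaded cells exposed to compound for 30 min before agonist addition, fluorescence change read 180 s after agonist.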 The note with it: 250 μM BzATP.
In another experiment the target is rat P2X7 (Rattus norvegicus (Rat), UniProt Q64663). The experiment can be described thus: Ca2+ flux (FLIPR) in 1321N1 cells expressing recombinant rat P2X7 channel.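 Further: Calcium-4 dye fluorescence change read 180 s after agonist addition, following 30 min cell preincubation with test compound.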 The note with it: 250 μM BzATP.
rat P2X7, sequence (Q64663 whole entry): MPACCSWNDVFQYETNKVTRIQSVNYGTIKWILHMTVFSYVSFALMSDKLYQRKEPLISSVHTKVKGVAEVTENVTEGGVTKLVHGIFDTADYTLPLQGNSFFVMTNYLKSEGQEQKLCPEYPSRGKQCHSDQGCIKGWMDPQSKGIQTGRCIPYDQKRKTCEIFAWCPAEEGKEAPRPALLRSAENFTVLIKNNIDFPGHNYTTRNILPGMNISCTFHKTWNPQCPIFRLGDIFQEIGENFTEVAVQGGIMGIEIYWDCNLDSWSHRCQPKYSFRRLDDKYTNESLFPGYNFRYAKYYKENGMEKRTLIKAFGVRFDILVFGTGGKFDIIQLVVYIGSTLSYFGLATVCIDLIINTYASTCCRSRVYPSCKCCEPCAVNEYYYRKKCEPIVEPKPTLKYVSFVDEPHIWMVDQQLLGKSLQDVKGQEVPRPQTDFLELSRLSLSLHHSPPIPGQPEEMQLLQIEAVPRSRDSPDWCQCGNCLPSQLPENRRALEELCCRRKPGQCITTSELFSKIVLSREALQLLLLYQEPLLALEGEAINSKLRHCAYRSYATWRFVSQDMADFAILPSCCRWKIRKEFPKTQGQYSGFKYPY

T1 sequence (Q99572 whole entry): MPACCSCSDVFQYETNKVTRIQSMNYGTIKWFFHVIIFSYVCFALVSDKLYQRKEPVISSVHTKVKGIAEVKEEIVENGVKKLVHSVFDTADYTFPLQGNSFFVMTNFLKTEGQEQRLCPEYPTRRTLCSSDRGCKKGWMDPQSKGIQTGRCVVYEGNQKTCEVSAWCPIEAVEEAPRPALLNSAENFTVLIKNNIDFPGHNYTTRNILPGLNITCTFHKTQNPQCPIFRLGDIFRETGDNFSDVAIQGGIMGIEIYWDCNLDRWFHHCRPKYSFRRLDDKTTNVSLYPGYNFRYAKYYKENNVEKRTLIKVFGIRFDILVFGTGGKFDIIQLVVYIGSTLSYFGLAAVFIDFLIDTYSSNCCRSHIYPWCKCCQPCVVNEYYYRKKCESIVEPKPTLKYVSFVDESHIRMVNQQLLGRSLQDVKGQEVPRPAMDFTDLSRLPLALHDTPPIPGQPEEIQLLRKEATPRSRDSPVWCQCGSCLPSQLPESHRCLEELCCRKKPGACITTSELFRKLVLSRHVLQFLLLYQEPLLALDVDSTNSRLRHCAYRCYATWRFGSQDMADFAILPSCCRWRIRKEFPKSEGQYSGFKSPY

Take `C[C@@H]1c2nnn(-c3cccc(F)n3)c2CCN1C(=O)c1cccc(C(F)(F)F)c1Cl` (single isomer, unassigned) [Example 146, (R*)-(2-chloro-3-(trifluoromethyl)phenyl)(1-(6-fluoropyridin-2-yl)-4-methyl-6,7-dihydro-1H-[1,2,3]triazolo[4,5-c]pyridin-5(4H)-yl)methanone]: the “PBMC 10 μM (% control)” value at P2X7 [1] is listed as 30.9 % control. For the same compound, the figures for the IC50 on P2X7 [2] and on rat P2X7 were 2700 nM and greater than 10 µM, respectively.
On the same counts, the results for `C[C@H]1Cc2c(nnn2-c2ncc(F)cn2)CN1C(=O)c1ccc(Cl)cc1F` [Example 156, (S)-(4-chloro-2-fluorophenyl)(1-(5-fluoropyrimidin-2-yl)-6-methyl-6,7-dihydro-1H-[1,2,3]triazolo[4,5-c]pyridin-5(4H)-yl)methanone] are 1.8 % control, 14.4 nM and 0.604 µM.
The matching figures for `Cc1cnc(-n2nnc3c2CCN(C(=O)c2cccc(C(F)(F)F)c2Cl)C3C)c(C)c1` (stereo not drawn) [Example 159, (2-chloro-3-(trifluoromethyl)phenyl)(1-(3,5-dimethylpyridin-2-yl)-4-methyl-6,7-dihydro-1H-[1,2,3]triazolo[4,5-c]pyridin-5(4H)-yl)methanone]: 54.1 % control, greater than 10000 nM and greater than 10 µM.
Take `CCOC(=O)C1c2ncn(-c3cnccn3)c2CCN1C(=O)c1cccc(C(F)(F)F)c1Cl` (stereo not drawn) [Example 28, Ethyl 5-{[2-chloro-3-(trifluoromethyl)phenyl]carbonyl}-1-pyrazin-2-yl-4,5,6,7-tetrahydro-1H-imidazo[4,5-c]pyridine-4-carboxylate]: at P2X7 [1], the “PBMC 1 μM (% control)” value came to 4.8 % control. Besides, the values for the IC50 at P2X7 [2] and on rat P2X7 were 13.8 nM and 0.0165 µM, respectively.
With `Cc1cc(C)nc(-n2nnc3c2CCN(C(=O)c2cccc(Cl)c2Cl)C3C)c1` (stereo not drawn) [Example 231, (2,3-dichlorophenyl)(1-(4,6-dimethylpyridin-2-yl)-4-methyl-6,7-dihydro-1H-[1,2,3]triazolo[4,5-c]pyridin-5(4H)-yl)methanone], at P2X7 [1], the “PBMC 10 μM (% control)” value is −4.8 % control. Further, the IC50 (as a rule, the concentration that inhibits the measured activity by half) at P2X7 [2] was 499 nM; at rat P2X7, 38.2 µM.
For the compound `CC(C)C1c2ncn(-c3cnccn3)c2CCN1C(=O)c1cccc(C(F)(F)F)c1Cl` (stereo not drawn) [Example 16, (2-Chloro-3-(trifluoromethyl)phenyl)(4-isopropyl-1-(pyrazin-2-yl)-6,7-dihydro-1H-imidazo[4,5-c]pyridin-5(4H)-yl)methanone], the “PBMC 1 μM (% control)” value at P2X7 [1] was determined as 8.5 % control. Further, the IC50 at P2X7 [2] stood at 104 nM; at rat P2X7, 0.456 µM.
Regarding `CC1CN(C(=O)c2cccc(C(F)(F)F)c2Cl)C(C)c2nnn(-c3ccc(F)cc3)c21` (stereo not drawn) [Example 238, (2-Chloro-3-(trifluoromethyl)phenyl)(1-(4-fluorophenyl)-4,7-dimethyl-6,7-dihydro-1H-[1,2,3]triazolo[4,5-c]pyridin-5(4H)-yl)methanone], the “PBMC 10 μM (% control)” value on P2X7 [1] is listed as −4.1 % control. Further, the IC50 is 27.1 nM on P2X7 [2] and 0.724 µM at rat P2X7.
On to `CC1c2ncn(-c3ccc(F)cn3)c2CCN1C(=O)c1ccc(F)cc1Cl` (stereo not drawn) [Example 256, (2-chloro-4-fluorophenyl)(1-(5-fluoropyridin-2-yl)-4-methyl-6,7-dihydro-1H-imidazo[4,5-c]pyridin-5(4H)-yl)methanone], for which the “PBMC 10 μM (% control)” value on P2X7 [1] is 7.1 % control. Further, the IC50 on P2X7 [2] is 2390 nM; at rat P2X7, greater than 10 µM.
As to `CCc1cccnc1-n1nnc2c1CCN(C(=O)c1cccc(C(F)(F)F)c1)C2C` (stereo not drawn) [Example 295, (1-(3-ethylpyridin-2-yl)-4-methyl-6,7-dihydro-1H-[1,2,3]triazolo[4,5-c]pyridin-5(4H)-yl)(3-(trifluoromethyl)phenyl)methanone], at P2X7 [1], the “PBMC 10 μM (% control)” value is reported as 10.1 % control. Also, the IC50 is greater than 10000 nM at P2X7 [2] and greater than 10 µM on rat P2X7.
On the same counts, the results for `CC1c2nnn(-c3cncnc3)c2C=CN1C(=O)c1cccc(C(F)(F)F)c1Cl` (stereo not drawn) [Example 236, (2-Chloro-3-(trifluoromethyl)phenyl)(4-methyl-1-(pyrimidin-5-yl)-1H-[1,2,3]triazolo[4,5-c]pyridin-5(4H)-yl)methanone] are 9.3 % control, 1190 nM and greater than 10 µM.
The matching figures for `CC1c2nn(COCC[Si](C)(C)C)c(-c3ncc(F)cn3)c2CCN1C(=O)c1cccc(C(F)(F)F)c1Cl` (stereo not drawn) [Example 303, (2-chloro-3-(trifluoromethyl)phenyl)(3-(5-fluoropyrimidin-2-yl)-7-methyl-2-((2-(trimethylsilyl)ethoxy)methyl)-4,5-dihydro-2H-pyrazolo[3,4-c]pyridin-6(7H)-yl)methanone]: −1.6 % control, 6920 nM and 5.19 µM.
`CC1c2ncn(-c3cnccn3)c2C=CN1C(=O)c1cccc(C(F)(F)F)c1Cl` (stereo not drawn) [Example 56, 5-{[2-Chloro-3-(trifluoromethyl)phenyl]carbonyl}-4-methyl-1-pyrazin-2-yl-4,5-dihydro-1H-imidazo[4,5-c]pyridine]: the “PBMC 1 μM (% control)” value at P2X7 [1] is 10.1 % control. In addition, the results for the IC50 on P2X7 [2] and on rat P2X7 were 25.1 nM and 0.398 µM, respectively.
On to `Cn1nccc1-n1nnc2c1CCN(C(=O)c1cccc(C(F)(F)F)c1Cl)C2` [Example 128, (2-Chloro-3-(trifluoromethyl)phenyl)(1-(1-methyl-1H-pyrazol-5-yl)-6,7-dihydro-1H-[1,2,3]triazolo[4,5-c]pyridin-5(4H)-yl)methanone], for which the “PBMC 10 μM (% control)” value on P2X7 [1] is 23.1 % control. The concentration for half-maximal inhibition (IC50) at P2X7 [2] is 2110 nM; at rat P2X7, greater than 10 µM.
With `Cc1cnc(-n2nnc3c2CCN(C(=O)c2cccc(Cl)c2Cl)C3C)c(C)c1` (stereo not drawn) [Example 160, (2,3-dichlorophenyl)(1-(3,5-dimethylpyridin-2-yl)-4-methyl-6,7-dihydro-1H-[1,2,3]triazolo[4,5-c]pyridin-5(4H)-yl)methanone], the “PBMC 10 μM (% control)” value on P2X7 [1] turned out to be 101.5 % control. The IC50 is greater than 10000 nM on P2X7 [2] and greater than 10 µM at rat P2X7.
For `O=C(c1cccc(Cl)c1Cl)N1CCc2c(n[nH]c2-c2cncnc2)C1` [Example 330, (2,3-dichlorophenyl)(3-(pyrimidin-5-yl)-4,5-dihydro-2H-pyrazolo[3,4-c]pyridin-6(7H)-yl)methanone], on P2X7 [1], the “PBMC 10 μM (% control)” value is 33.8 % control. Moreover, the IC50 is greater than 10000 nM at P2X7 [2] and greater than 10 µM at rat P2X7.
The matching figures for `C[C@@H]1Cc2c(nnn2-c2ncccn2)CN1C(=O)c1cccc(C(F)(F)F)c1Cl` (single isomer, unassigned) [Example 221, (6R*)-5-{[2-Chloro-3-(trifluoromethyl)phenyl]carbonyl}-6-methyl-1-pyrimidin-2-yl-4,5,6,7-tetrahydro-1H-[1,2,3]triazolo[4,5-c]pyridine]: 17.8 % control, 506 nM and 6.68 µM.
As to `CC1c2nnn(-c3cncnc3)c2CCN1C(=O)c1cccc(C(F)(F)F)c1Cl` (stereo not drawn) [Example 177, (2-Chloro-3-(trifluoromethyl)phenyl)(4-methyl-1-(pyrimidin-5-yl)-6,7-dihydro-1H-[1,2,3]triazolo[4,5-c]pyridin-5(4H)-yl)methanone], the “PBMC 10 μM (% control)” value on P2X7 [1] is recorded as 8.6 % control. For the same compound, the results for the IC50 on P2X7 [2] and on rat P2X7 were 227 nM and greater than 10 µM, respectively.
In the case of `Cn1nc2c(c1-c1cncnc1)CCN(C(=O)c1cccc(Cl)c1Cl)C2` [Example 329, (2,3-dichlorophenyl)(2-methyl-3-(pyrimidin-5-yl)-4,5-dihydro-2H-pyrazolo[3,4-c]pyridin-6(7H)-yl)methanone], the “PBMC 1 μM (% control)” value on P2X7 [1] was 99.5 % control. Further, the IC50 was greater than 10000 nM on P2X7 [2] and greater than 10 µM on rat P2X7.
`O=C(c1cccc(Cl)c1Cl)N1CCc2c(-c3ccc(F)cc3)n[nH]c2C1` [Example 114, 6-[(2,3-Dichlorophenyl)carbonyl]-3-(4-fluorophenyl)-4,5,6,7-tetrahydro-2H-pyrazolo[3,4-c]pyridine]: the “PBMC 1 μM (% control)” value on P2X7 [1] was 20.4 % control. For the same compound, the IC50 on P2X7 [2] stood at 63.1 nM; at rat P2X7, 1.26 µM.
On the same counts, the results for `Cn1nc2c(c1-c1ccncc1)CCN(C(=O)c1cccc(Cl)c1Cl)C2` [Example 328, (2,3-dichlorophenyl)(2-methyl-3-(pyridin-4-yl)-4,5-dihydro-2H-pyrazolo[3,4-c]pyridin-6(7H)-yl)methanone] are 88.0 % control, greater than 10000 nM and greater than 10 µM.
In the case of `Cn1nc2c(c1-c1ccncc1)CCN(C(=O)c1cccc(C(F)(F)F)c1Cl)C2` [Example 327, (2-chloro-3-(trifluoromethyl)phenyl)(2-methyl-3-(pyridin-4-yl)-4,5-dihydro-2H-pyrazolo[3,4-c]pyridin-6(7H)-yl)methanone], at P2X7 [1], the “PBMC 1 μM (% control)” value worked out at 93.1 % control. Moreover, the IC50 is greater than 10000 nM on P2X7 [2] and greater than 10 µM on rat P2X7.
For the compound `Cc1cncc(-n2nnc3c2CCN(C(=O)c2cccc(Cl)c2Cl)C3C)n1` (stereo not drawn) [Example 180, (2,3-dichlorophenyl)(4-methyl-1-(6-methylpyrazin-2-yl)-6,7-dihydro-1H-[1,2,3]triazolo[4,5-c]pyridin-5(4H)-yl)methanone], the “PBMC 10 μM (% control)” value at P2X7 [1] is on record as −3.7 % control. For the same compound, the values for the IC50 at P2X7 [2] and at rat P2X7 were 592 nM and greater than 10 µM, respectively.
On the same counts, the results for `CC1Cc2c(-c3ccn[nH]3)n[nH]c2CN1C(=O)c1ccc(Cl)cc1Cl` (stereo not drawn) [Example 268, (2,4-dichlorophenyl)(5-methyl-3-(1H-pyrazol-5-yl)-4,5-dihydro-1H-pyrazolo[3,4-c]pyridin-6(7H)-yl)methanone] are −59.9 % control, 600 nM and 1.22 µM.
